Assay [1] addresses Sodium-dependent serotonin transporter (Homo sapiens, UniProt P31645).
Another assay addresses T1, Estrogen receptor (Homo sapiens, UniProt P03372).
T1 sequence (P03372 whole entry): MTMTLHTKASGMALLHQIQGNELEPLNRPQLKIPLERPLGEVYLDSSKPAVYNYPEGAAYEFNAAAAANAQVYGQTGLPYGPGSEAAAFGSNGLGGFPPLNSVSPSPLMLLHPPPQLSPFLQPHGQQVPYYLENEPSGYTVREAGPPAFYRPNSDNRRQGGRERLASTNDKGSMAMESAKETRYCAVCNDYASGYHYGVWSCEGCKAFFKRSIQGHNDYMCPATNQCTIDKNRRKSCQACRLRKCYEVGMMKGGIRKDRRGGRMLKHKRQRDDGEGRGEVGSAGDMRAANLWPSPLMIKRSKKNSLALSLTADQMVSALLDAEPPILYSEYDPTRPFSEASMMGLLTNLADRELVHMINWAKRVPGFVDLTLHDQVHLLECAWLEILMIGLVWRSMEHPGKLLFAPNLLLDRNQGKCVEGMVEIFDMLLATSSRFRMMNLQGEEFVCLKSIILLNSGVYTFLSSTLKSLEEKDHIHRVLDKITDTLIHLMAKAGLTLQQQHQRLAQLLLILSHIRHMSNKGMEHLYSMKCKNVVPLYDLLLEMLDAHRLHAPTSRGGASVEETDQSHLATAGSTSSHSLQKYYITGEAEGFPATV

In assay [2] the target is T2, Alpha-1A adrenergic receptor (Homo sapiens, UniProt P35348).
T2 sequence (P35348 whole entry): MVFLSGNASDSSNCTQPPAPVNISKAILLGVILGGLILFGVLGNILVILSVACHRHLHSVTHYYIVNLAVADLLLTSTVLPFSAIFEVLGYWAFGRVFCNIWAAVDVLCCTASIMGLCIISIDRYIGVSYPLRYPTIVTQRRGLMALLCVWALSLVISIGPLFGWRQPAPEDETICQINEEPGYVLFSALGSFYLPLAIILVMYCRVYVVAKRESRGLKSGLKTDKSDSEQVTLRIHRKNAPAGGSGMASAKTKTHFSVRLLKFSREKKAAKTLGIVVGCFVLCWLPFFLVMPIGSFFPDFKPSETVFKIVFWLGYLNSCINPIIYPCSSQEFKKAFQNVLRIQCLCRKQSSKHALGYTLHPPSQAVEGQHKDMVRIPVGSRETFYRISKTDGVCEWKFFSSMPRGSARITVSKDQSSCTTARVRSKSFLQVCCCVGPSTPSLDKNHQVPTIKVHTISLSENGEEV
In kind it is functional, cell-based.

The target of assay [3] is T3, Gamma-aminobutyric acid receptor subunit alpha-1 (Rattus norvegicus, UniProt P62813).
The target in assay [4] is Glutamate receptor ionotropic, NMDA 1 (Rattus norvegicus, UniProt P35439).
The target of assay [5] is T3, Gamma-aminobutyric acid receptor subunit alpha-1. The source holds these as a separate data set.
The next assay deals with Adenosine receptor A2a (Homo sapiens, UniProt P29274).
The target of a further assay is Histamine H2 receptor (Homo sapiens, UniProt P25021). In kind it is functional, cell-based.
Assay [6] has as its target T4, Alpha-2A adrenergic receptor (Homo sapiens, UniProt P08913).
T4 sequence (P08913 whole entry): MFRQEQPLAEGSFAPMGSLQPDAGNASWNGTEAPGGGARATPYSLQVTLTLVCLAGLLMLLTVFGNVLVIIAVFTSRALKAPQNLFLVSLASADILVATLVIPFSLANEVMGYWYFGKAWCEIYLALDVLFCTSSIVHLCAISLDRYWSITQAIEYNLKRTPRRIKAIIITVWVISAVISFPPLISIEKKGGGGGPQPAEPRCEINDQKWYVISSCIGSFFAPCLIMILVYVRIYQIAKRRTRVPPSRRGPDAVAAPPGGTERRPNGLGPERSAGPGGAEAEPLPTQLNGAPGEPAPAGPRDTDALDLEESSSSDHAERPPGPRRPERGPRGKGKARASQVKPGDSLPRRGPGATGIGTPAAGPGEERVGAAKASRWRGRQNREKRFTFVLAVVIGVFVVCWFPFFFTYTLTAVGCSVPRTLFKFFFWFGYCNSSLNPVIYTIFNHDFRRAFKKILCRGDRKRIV
In kind it is functional, cell-based.

Another assay concerns the target T5, Thromboxane A2 receptor (Homo sapiens, UniProt P21731).
T5 sequence (P21731 whole entry): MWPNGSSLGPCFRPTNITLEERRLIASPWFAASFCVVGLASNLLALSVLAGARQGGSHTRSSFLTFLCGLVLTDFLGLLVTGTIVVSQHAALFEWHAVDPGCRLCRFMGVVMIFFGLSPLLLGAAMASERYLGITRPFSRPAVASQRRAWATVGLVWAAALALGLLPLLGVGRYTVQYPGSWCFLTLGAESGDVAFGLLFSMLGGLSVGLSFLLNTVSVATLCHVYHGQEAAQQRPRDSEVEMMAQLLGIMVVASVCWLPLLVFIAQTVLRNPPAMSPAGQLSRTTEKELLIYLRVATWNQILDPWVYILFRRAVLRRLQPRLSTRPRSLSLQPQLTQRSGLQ

Assay [7] concerns the target Kappa-type opioid receptor (Homo sapiens, UniProt P41145).

A value given as a limit tells only on which side of the number the result lay.

A word on the AC50: it is the concentration at which the activity in the assay is half-maximal. The low end stands for activity at low concentration, the high end for activity only at high concentration.
Further: assay procedure not described here.

Sequence of Sodium-dependent serotonin transporter (P31645 whole entry): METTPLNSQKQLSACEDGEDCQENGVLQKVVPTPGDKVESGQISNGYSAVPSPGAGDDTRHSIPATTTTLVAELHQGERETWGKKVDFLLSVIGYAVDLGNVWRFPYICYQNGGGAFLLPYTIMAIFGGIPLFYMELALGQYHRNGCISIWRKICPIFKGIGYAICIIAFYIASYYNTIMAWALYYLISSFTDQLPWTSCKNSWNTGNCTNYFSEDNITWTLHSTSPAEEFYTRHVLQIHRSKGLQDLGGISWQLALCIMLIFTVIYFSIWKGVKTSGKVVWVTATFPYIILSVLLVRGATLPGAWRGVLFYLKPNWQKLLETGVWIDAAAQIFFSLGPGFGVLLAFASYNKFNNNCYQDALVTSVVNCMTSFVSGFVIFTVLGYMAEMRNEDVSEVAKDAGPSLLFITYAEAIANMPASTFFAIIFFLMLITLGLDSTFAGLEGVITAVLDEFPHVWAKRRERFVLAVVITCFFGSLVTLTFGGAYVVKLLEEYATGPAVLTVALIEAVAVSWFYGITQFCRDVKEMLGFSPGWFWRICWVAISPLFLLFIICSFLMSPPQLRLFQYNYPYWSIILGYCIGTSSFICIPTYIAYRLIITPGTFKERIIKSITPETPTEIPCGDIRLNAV
T3 sequence (P62813 whole entry): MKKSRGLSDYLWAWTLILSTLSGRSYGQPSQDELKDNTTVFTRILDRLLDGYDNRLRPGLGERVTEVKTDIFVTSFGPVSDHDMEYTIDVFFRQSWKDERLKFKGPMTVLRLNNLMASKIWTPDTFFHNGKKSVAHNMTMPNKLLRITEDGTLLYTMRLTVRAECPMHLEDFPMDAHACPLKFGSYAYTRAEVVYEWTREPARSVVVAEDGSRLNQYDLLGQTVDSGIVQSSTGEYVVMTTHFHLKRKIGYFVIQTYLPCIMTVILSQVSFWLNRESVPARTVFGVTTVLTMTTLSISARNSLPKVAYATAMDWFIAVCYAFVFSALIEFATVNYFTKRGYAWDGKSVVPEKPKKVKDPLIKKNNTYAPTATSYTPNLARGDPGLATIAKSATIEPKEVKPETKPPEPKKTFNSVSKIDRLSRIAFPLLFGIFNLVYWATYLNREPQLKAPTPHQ
Sequence of Kappa-type opioid receptor (P41145 whole entry): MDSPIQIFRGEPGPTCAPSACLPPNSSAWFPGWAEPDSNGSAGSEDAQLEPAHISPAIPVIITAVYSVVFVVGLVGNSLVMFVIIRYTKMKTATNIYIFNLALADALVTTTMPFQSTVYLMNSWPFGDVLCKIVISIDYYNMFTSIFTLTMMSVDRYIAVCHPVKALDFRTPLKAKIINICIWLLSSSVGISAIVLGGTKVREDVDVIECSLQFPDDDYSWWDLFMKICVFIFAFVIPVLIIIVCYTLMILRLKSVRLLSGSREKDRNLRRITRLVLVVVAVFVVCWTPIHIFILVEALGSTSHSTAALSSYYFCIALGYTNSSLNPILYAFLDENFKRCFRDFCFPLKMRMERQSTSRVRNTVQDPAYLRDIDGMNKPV
Sequence of Histamine H2 receptor (P25021 whole entry): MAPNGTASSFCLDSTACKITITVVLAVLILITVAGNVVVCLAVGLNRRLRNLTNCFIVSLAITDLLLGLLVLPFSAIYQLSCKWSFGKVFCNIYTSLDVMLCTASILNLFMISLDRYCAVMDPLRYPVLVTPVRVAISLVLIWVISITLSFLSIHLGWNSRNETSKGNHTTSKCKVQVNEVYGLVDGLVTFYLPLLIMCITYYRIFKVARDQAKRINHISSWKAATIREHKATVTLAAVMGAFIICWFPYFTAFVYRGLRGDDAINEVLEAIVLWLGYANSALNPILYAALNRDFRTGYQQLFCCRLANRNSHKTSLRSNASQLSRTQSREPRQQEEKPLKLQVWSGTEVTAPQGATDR
Sequence of Adenosine receptor A2a (P29274 whole entry): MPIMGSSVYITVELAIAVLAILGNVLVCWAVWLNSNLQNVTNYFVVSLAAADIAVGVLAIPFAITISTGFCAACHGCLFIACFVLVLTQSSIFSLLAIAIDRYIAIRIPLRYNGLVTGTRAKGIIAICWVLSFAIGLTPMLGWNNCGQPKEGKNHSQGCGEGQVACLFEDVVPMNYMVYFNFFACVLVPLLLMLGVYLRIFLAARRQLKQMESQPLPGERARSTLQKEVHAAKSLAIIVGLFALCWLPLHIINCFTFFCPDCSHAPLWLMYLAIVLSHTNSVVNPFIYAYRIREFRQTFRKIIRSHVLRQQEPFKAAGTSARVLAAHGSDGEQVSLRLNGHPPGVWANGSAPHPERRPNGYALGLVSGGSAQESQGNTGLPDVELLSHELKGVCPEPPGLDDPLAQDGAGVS

Consider `OC[C@H]1O[C@@H](c2ccc(Cl)c(Cc3ccc(O[C@H]4CCOC4)cc3)c2)[C@H](O)[C@@H](O)[C@@H]1O` [EMPAGLIFLOZIN], for which the AC50 (in assay [1]; on Estrogen receptor; in [2]; in assay [3]) was > 30 µM each time.
With `CC(C)(O)CNc1nc(Nc2ccnc(C(F)(F)F)c2)nc(-c2cccc(C(F)(F)F)n2)n1` [ENASIDENIB], the AC50 is > 30 µM in [1], > 30 µM on Estrogen receptor, 20.3 µM in [2] and > 30 µM in assay [3].
Consider `CCc1nc(C(N)=O)c(Nc2ccc(N3CCC(N4CCN(C)CC4)CC3)c(OC)c2)nc1NC1CCOCC1` [GILTERITINIB], for which the AC50 in assay [1] was > 30 µM; at Estrogen receptor it was > 30 µM; in [2], > 0.3 µM; in assay [3] it was > 30 µM.
Turning to `CC[C@H](c1ccc(O)cc1)[C@@H](CC)c1ccc(O)cc1` [HEXESTROL], the AC50 in [1] is > 30 µM; on Estrogen receptor, 0.0252 µM; in assay [2], > 3 µM; in [3], > 30 µM.
`OC[C@H]1O[C@@H](c2ccc(F)c(Cc3cc4ccccc4s3)c2)[C@H](O)[C@@H](O)[C@@H]1O` [IPRAGLIFLOZIN]: the AC50 in assay [1] is > 30 µM; at Estrogen receptor, > 30 µM; in [2], 22.2 µM; in assay [3], > 30 µM.
In the case of `CC(C)C[C@H](NC(=O)CNC(=O)c1cc(Cl)ccc1Cl)B(O)O` [IXAZOMIB], the AC50 (in assay [1]; on Estrogen receptor; in [2]; in assay [3]) was > 30 µM each time.
Turning to `CC(=O)O[C@]1(C(C)=O)CC[C@H]2[C@@H]3C=C(C)C4=CC(=O)CC[C@@H]4[C@H]3CC[C@@]21C` [NOMEGESTROL ACETATE], the AC50 was > 30 µM in assay [1]; > 10 µM in assay [4]; > 30 µM in assay [5]; > 30 µM on Estrogen receptor; > 10 µM in assay [2]; > 30 µM on Adenosine receptor A2a. For the same compound, the AC50 at Histamine H2 receptor was > 30 µM; in assay [6] it was > 30 µM; in assay [3], 4.4 µM; at Thromboxane A2 receptor it was > 30 µM; in assay [7], > 30 µM.
`O=C(O)c1cc(/N=N/c2ccc(O)c(C(=O)O)c2)ccc1O` [OLSALAZINE]: the AC50 (in [1]; at Estrogen receptor; in assay [2]; in [3]) was > 30 µM each time.
For `FC(F)(F)c1ccc(CNc2ccc(Cc3c[nH]c4ncc(Cl)cc34)cn2)cn1` [PEXIDARTINIB], the AC50 in [1] was 8 µM; at Estrogen receptor, > 30 µM; in assay [2], 1.8 µM; in assay [3], > 30 µM.
Turning to `Nc1ccc(C(=O)Oc2ccccc2)c(O)c1` [PHENYL AMINOSALICYLATE], the AC50 in assay [1] was > 30 µM; at Estrogen receptor it was > 30 µM; in assay [2], 23 µM; in [3], > 30 µM.
For the compound `CN1CCC(=C2c3ccccc3Sc3ccccc32)CC1` [PIMETHIXENE], the AC50 in assay [1] was 18.3 µM; on Estrogen receptor, > 30 µM; in [2] it was 0.121 µM; in [3] it was > 30 µM.
On to `CC[C@H]1OC(=O)[C@H](C)C(=O)[C@H](C)[C@@H](O[C@@H]2O[C@H](C)C[C@H](N(C)C)[C@H]2O)[C@](C)(OC)C[C@@H](C)C(=O)[C@H](C)[C@H]2N(CCCCn3cnc(-c4cccnc4)c3)C(=O)O[C@]12C` [TELITHROMYCIN], for which the AC50 (in [1]; on Estrogen receptor; in assay [2]; in assay [3]) was > 30 µM each time.

Source of the values: ChEMBL document CHEMBL5291721, “A preclinical secondary pharmacology resource illuminates target-adverse drug reaction associations of marketed drugs” (Nat Commun, 2023).
